Reference: patent publication US20240239792A1, “MODULATORS OF BCL-2 OR BCL-2/BCL-XL AND USES THEREOF” (APPICINE THERAPEUTICS (HK) LIMITED, priority 2021, published 2024)

Assays:
[1] = molecular target: T1, BCL-2 (Homo sapiens, UniProt P10415); assay: HTRF BCL-2/BAK assay (Cisbio); format: binding; details: recombinant human Tag1-BCL-2 2 nM, Tag2-BAK 10 nM
T1 construct: purchased Cisbio 63ADK000CB01PEG
Experimental: (§1) Then the pre-mixed anti-Tag1-Eu^3+ and anti-tag2-XL665 were added to the plate and further incubated at room temperature for another 2 hours. The signals ([…]) were read on Envision 2104 instrument. The IC50 for each compound was derived from fitting the signal of 665/615 nM to the increasing compound concentration.
(§2) Using the above assays, the following compounds were tested.

[2] = molecular target: T2, BCL-XL (Homo sapiens, UniProt Q07817); assay: HTRF BCL-XL/BAK assay (Cisbio); format: binding; details: recombinant human Tag1-BCL-XL 2 nM, Tag2-BAK 5 nM
T2 construct: purchased Cisbio 63ADK000CB04PEG
T2 sequence (Q07817 whole entry): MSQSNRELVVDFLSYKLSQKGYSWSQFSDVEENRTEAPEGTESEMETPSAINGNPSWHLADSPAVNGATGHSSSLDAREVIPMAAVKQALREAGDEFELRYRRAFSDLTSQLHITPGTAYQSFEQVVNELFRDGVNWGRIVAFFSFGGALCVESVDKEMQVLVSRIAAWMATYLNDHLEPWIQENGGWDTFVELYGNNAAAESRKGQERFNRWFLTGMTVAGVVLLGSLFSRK
Experimental: as §1, §2

[3] = test system: DOHH2 cells; assay: CellTiter-Glo cell proliferation assay, DOHH2 cells; format: cell-based; details: Homo sapiens, DOHH-2, 72 hours
In short: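 GI50 derived from CellTiter-Glo luminescent viability signal. Cells grown in DMEM with 10% FBS received a compound dilution series for 72 h (37 °C, 5% CO2).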

T1 sequence (P10415 whole entry): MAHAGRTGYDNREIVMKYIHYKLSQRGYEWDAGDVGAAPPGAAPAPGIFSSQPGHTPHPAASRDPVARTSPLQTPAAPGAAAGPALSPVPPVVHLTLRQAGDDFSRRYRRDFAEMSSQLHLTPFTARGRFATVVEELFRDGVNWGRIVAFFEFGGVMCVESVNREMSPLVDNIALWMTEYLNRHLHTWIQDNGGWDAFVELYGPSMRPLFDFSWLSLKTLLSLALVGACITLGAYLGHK

| SMILES | IC50 [1] | IC50 [2] | GI50 [3] |
| --- | --- | --- | --- |
| O=C(NS(=O)(=O)c1ccc(NCC2CCOCC2)c([N+](=O)[O-])c1)c1ccc(N2CCN(C3COCc4ccccc43)CC2)cc1Oc1cnc2[nH]ccc2c1 (stereo not drawn) [Compound 12, 2-((1H-pyrrolo[2,3-b]pyridin-5-yl)oxy)-4-(4-(isochroman-4-yl)piperazin-1-yl)-N-((3-nitro-4-(((tetrahydro-2H-pyran-4-yl)methyl)amino)phenyl)sulfonyl)benzamide] | 20 to 200 nM | > 2000 nM | 500 to 5000 nM |
| O=C(NS(=O)(=O)c1cccc([N+](=O)[O-])c1)c1ccc(N2CCN(C3CCCc4cccc(-c5ccc(Cl)cc5)c43)CC2)cc1Oc1cnc2[nH]ccc2c1 (stereo not drawn) [Compound 13, 2-((1H-pyrrolo[2,3-b]pyridin-5-yl)oxy)-4-(4-(8-(4-chlorophenyl)-1,2,3,4-tetrahydronaphthalen-1-yl)piperazin-1-yl)-N-((3-nitrophenyl)sulfonyl)benzamide] | 20 to 200 nM | 200 to 2000 nM | 500 to 5000 nM |
| O=C(NS(=O)(=O)c1ccc(NCC2CCOCC2)c([N+](=O)[O-])c1)c1ccc(N2CCN(C3CCCc4cccc(-c5ccc(Cl)cc5)c43)CC2)cc1Oc1cnc2[nH]ccc2c1 (stereo not drawn) [Compound 16, 2-((1H-pyrrolo[2,3-b]pyridin-5-yl)oxy)-4-(4-(8-(4-chlorophenyl)-1,2,3,4-tetrahydronaphthalen-1-yl)piperazin-1-yl)-N-((3-nitro-4-(((tetrahydro-2H-pyran-4-yl)methyl)amino)phenyl)sulfonyl)benzamide] | < 20 nM | 200 to 2000 nM | 500 to 5000 nM |
| O=C(NS(=O)(=O)c1ccc(NCC2CCOCC2)c([N+](=O)[O-])c1)c1ccc(N2CCN(C3CCCCc4c(Br)cccc43)CC2)cc1Oc1cnc2[nH]ccc2c1 (stereo not drawn) [Compound 18, 2-((1H-pyrrolo[2,3-b]pyridin-5-yl)oxy)-4-(4-(1-bromo-6,7,8,9-tetrahydro-5H-benzo[7]annulen-5-yl)piperazin-1-yl)-N-((3-nitro-4-(((tetrahydro-2H-pyran-4-yl)methyl)amino)phenyl)sulfonyl)benzamide] | < 20 nM | 20 to 200 nM | < 50 nM |
| O=C(NS(=O)(=O)c1ccc(NCC2CCOCC2)c([N+](=O)[O-])c1)c1ccc(N2CCN(C3CCCCc4c(-c5ccccc5)cccc43)CC2)cc1Oc1cnc2[nH]ccc2c1 (stereo not drawn) [Compound 19, 2-((1H-pyrrolo[2,3-b]pyridin-5-yl)oxy)-N-((3-nitro-4-(((tetrahydro-2H-pyran-4-yl)methyl)amino)phenyl)sulfonyl)-4-(4-(1-phenyl-6,7,8,9-tetrahydro-5H-benzo[7]annulen-5-yl)piperazin-1-yl)benzamide] | < 20 nM | > 2000 nM | 500 to 5000 nM |
| Cc1cccc2c1CCCCC2N1CCN(c2ccc(C(=O)NS(=O)(=O)c3ccc(NCC4CCOCC4)c([N+](=O)[O-])c3)c(Oc3cnc4[nH]ccc4c3)c2)CC1 (stereo not drawn) [Compound 20, 2-((1H-pyrrolo[2,3-b]pyridin-5-yl)oxy)-4-(4-(1-methyl-6,7,8,9-tetrahydro-5H-benzo[7]annulen-5-yl)piperazin-1-yl)-N-((3-nitro-4-(((tetrahydro-2H-pyran-4-yl)methyl)amino)phenyl)sulfonyl)benzamide] | < 20 nM | 200 to 2000 nM | 50 to 500 nM |
| O=C(NS(=O)(=O)c1ccc(NCC2CCOCC2)c([N+](=O)[O-])c1)c1ccc(N2CCN(C3CCCCc4ccc(Br)cc43)CC2)cc1Oc1cnc2[nH]ccc2c1 (stereo not drawn) [Compound 21, 2-((1H-pyrrolo[2,3-b]pyridin-5-yl)oxy)-4-(4-(3-bromo-6,7,8,9-tetrahydro-5H-benzo[7]annulen-5-yl)piperazin-1-yl)-N-((3-nitro-4-(((tetrahydro-2H-pyran-4-yl)methyl)amino)phenyl)sulfonyl)benzamide] | < 20 nM | > 2000 nM | 50 to 500 nM |
| O=C(NS(=O)(=O)c1ccc(NCC2CCOCC2)c([N+](=O)[O-])c1)c1ccc(N2CCN(C3CCCCc4cc(Br)ccc43)CC2)cc1Oc1cnc2[nH]ccc2c1 (stereo not drawn) [Compound 23, 2-((1H-pyrrolo[2,3-b]pyridin-5-yl)oxy)-4-(4-(2-bromo-6,7,8,9-tetrahydro-5H-benzo[7]annulen-5-yl)piperazin-1-yl)-N-((3-nitro-4-(((tetrahydro-2H-pyran-4-yl)methyl)amino)phenyl)sulfonyl)benzamide] | 20 to 200 nM | 200 to 2000 nM | 500 to 5000 nM |
| O=C(NS(=O)(=O)c1ccc(NCC2CCOCC2)c([N+](=O)[O-])c1)c1ccc(N2CCN(C3CCCCc4cc(Cl)ccc43)CC2)cc1Oc1cnc2[nH]ccc2c1 (stereo not drawn) [Compound 25, 2-((1H-pyrrolo[2,3-b]pyridin-5-yl)oxy)-4-(4-(2-chloro-6,7,8,9-tetrahydro-5H-benzo[7]annulen-5-yl)piperazin-1-yl)-N-((3-nitro-4-(((tetrahydro-2H-pyran-4-yl)methyl)amino)phenyl)sulfonyl)benzamide] | 20 to 200 nM | 200 to 2000 nM | 50 to 500 nM |
| O=C(NS(=O)(=O)c1ccc(NCC2CCOCC2)c([N+](=O)[O-])c1)c1ccc(N2CCN(C3CCCCc4ccc(Cl)cc43)CC2)cc1Oc1cnc2[nH]ccc2c1 (stereo not drawn) [Compound 26, 2-((1H-pyrrolo[2,3-b]pyridin-5-yl)oxy)-4-(4-(3-chloro-6,7,8,9-tetrahydro-5H-benzo[7]annulen-5-yl)piperazin-1-yl)-N-((3-nitro-4-(((tetrahydro-2H-pyran-4-yl)methyl)amino)phenyl)sulfonyl)benzamide] | < 20 nM | > 2000 nM | 50 to 500 nM |
| O=C1CCC(N2CCN(c3ccc(C(=O)NS(=O)(=O)c4ccc(NCC5CCOCC5)c([N+](=O)[O-])c4)c(Oc4cnc5[nH]ccc5c4)c3)CC2)c2ccccc2N1 (stereo not drawn) [Compound 28, 2-((1H-pyrrolo[2,3-b]pyridin-5-yl)oxy)-N-((3-nitro-4-(((tetrahydro-2H-pyran-4-yl)methyl)amino)phenyl)sulfonyl)-4-(4-(2-oxo-2,3,4,5-tetrahydro-1H-benzo[b]azepin-5-yl)piperazin-1-yl)benzamide] | 20 to 200 nM | > 2000 nM | > 5000 nM |
| CN1CCC(CNc2ccc(S(=O)(=O)NC(=O)c3ccc(N4CCN(C5CCCCc6c(Cl)cccc65)CC4)cc3Oc3cnc4[nH]ccc4c3)cc2[N+](=O)[O-])CC1 (stereo not drawn) [Compound 29, 2-((1H-pyrrolo[2,3-b]pyridin-5-yl)oxy)-4-(4-(1-chloro-6,7,8,9-tetrahydro-5H-benzo[7]annulen-5-yl)piperazin-1-yl)-N-((4-(((1-methylpiperidin-4-yl)methyl)amino)-3-nitrophenyl)sulfonyl)benzamide] | < 20 nM | < 20 nM | < 50 nM |
| O=C(NS(=O)(=O)c1ccc(NCC2CCOCC2)c([N+](=O)[O-])c1)c1ccc(N2CCN(C3CCCCc4ccc([N+](=O)[O-])cc43)CC2)cc1Oc1cnc2[nH]ccc2c1 (stereo not drawn) [Compound 30, 2-((1H-pyrrolo[2,3-b]pyridin-5-yl)oxy)-N-((3-nitro-4-(((tetrahydro-2H-pyran-4-yl)methyl)amino)phenyl)sulfonyl)-4-(4-(3-nitro-6,7,8,9-tetrahydro-5H-benzo[7]annulen-5-yl)piperazin-1-yl)benzamide] | < 20 nM | 200 to 2000 nM | 500 to 5000 nM |
| CN1CCN(CCNc2ccc(S(=O)(=O)NC(=O)c3ccc(N4CCN(C5CCCCc6c(Cl)cccc65)CC4)cc3Oc3cnc4[nH]ccc4c3)cc2[N+](=O)[O-])CC1 (stereo not drawn) [Compound 32, 2-((1H-pyrrolo[2,3-b]pyridin-5-yl)oxy)-4-(4-(1-chloro-6,7,8,9-tetrahydro-5H-benzo[7]annulen-5-yl)piperazin-1-yl)-N-((4-((2-(4-methylpiperazin-1-yl)ethyl)amino)-3-nitrophenyl)sulfonyl)benzamide] | < 20 nM | < 20 nM | < 50 nM |
| O=C(NS(=O)(=O)c1ccc(NCC2CCOCC2)c([N+](=O)[O-])c1)c1ccc(N2CCN(C3CCCCc4c3cccc4[N+](=O)[O-])CC2)cc1Oc1cnc2[nH]ccc2c1 (stereo not drawn) [Compound 33, 2-((1H-pyrrolo[2,3-b]pyridin-5-yl)oxy)-N-((3-nitro-4-(((tetrahydro-2H-pyran-4-yl)methyl)amino)phenyl)sulfonyl)-4-(4-(1-nitro-6,7,8,9-tetrahydro-5H-benzo[7]annulen-5-yl)piperazin-1-yl)benzamide] | < 20 nM | 20 to 200 nM | < 50 nM |
| CC(=O)Nc1ccc2c(c1)C(N1CCN(c3ccc(C(=O)NS(=O)(=O)c4ccc(NCC5CCOCC5)c([N+](=O)[O-])c4)c(Oc4cnc5[nH]ccc5c4)c3)CC1)CCCC2 (stereo not drawn) [Compound 34, 2-((1H-pyrrolo[2,3-b]pyridin-5-yl)oxy)-4-(4-(3-acetamido-6,7,8,9-tetrahydro-5H-benzo[7]annulen-5-yl)piperazin-1-yl)-N-((3-nitro-4-(((tetrahydro-2H-pyran-4-yl)methyl)amino)phenyl)sulfonyl)benzamide] | < 20 nM | 200 to 2000 nM | 500 to 5000 nM |
| Cc1ccc(S(=O)(=O)N2CCc3ccccc3C(N3CCN(c4ccc(C(=O)NS(=O)(=O)c5ccc(NCC6CCOCC6)c([N+](=O)[O-])c5)c(Oc5cnc6[nH]ccc6c5)c4)CC3)C2)cc1 (stereo not drawn) [Compound 35, 2-((1H-pyrrolo[2,3-b]pyridin-5-yl)oxy)-N-((3-nitro-4-(((tetrahydro-2H-pyran-4-yl)methyl)amino)phenyl)sulfonyl)-4-(4-(3-tosyl-2,3,4,5-tetrahydro-1H-benzo[d]azepin-1-yl)piperazin-1-yl)benzamide] | 20 to 200 nM | 200 to 2000 nM | 500 to 5000 nM |
